ChEMBL document CHEMBL2407053, “Pharbinilic acid, an allogibberic acid from morning glory (Pharbitis nil)” (J Nat Prod, 2013)

Columns and labels:
SK-OV-3 = test: Cytotoxicity against human SKOV3 cells by sulforhodamine B assay; type: functional, cell-based
HCT-15 = test: Cytotoxicity against human HCT15 cells by sulforhodamine B assay; type: functional, cell-based
BV-2 [1] = test: Antiinflammatory activity against mouse BV2 cells assessed as inhibition of LPS-induced NO production incubated for 30 mins prior to LPS-challenge measured after 24 hrs by Griess assay; type: functional, cell-based
BV-2 [2] = test: Cytotoxicity against mouse BV2 cells by MTT assay; type: cell-based
A549 = test: Cytotoxicity against human A549 cells by sulforhodamine B assay; type: functional, cell-based
SK-MEL-2 = test: Cytotoxicity against human SK-MEL-2 cells by sulforhodamine B assay; type: functional, cell-based

IC50 (BV-2 [1]): 32.9 µM
Compound: C=C1C[C@]23C[C@@]1(O)CC[C@H]2c1cc2c(C(=O)O)coc2c(C)c1[C@@H]3C(=O)O
IC50 (SK-OV-3): 4.83 µM | IC50 (HCT-15): 6.79 µM | Activity (BV-2 [2]): Non-toxic | IC50 (A549): 15.7 µM | IC50 (SK-MEL-2): 8.36 µM
